Tests used:
purified HLA DRB1*0404 = target: T1, purified HLA DRB1*0404 (Homo sapiens, UniProt P01903+P01911, A100R/A169T/F76Y/I96L/K127E/L162R/M171V/N62H/P40V/Q125Y/R42H/S133A/S149N/S66Y/V209L/W38E); assay: HLA-DR radioligand binding inhibition assay, DRB1*0404; conditions: IC50 nM purified HLA DRB1 *0404, purified HLA DRB1*0404
T1 construct: purified from EBV transformed homozygous cell lines or single MHC allele transfected 721.221, C1R, or fibroblast lines; made in house
Outline: (§1)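 Competition binding: 1-10 nM radiolabeled peptide + 1 μM–1 nM HLA-DR, protease inhibitor cocktail, 2 d, RT or 37° C., pH 4–7. LB3.1 capture 3 h in 0.05% NP40/PBS; scintillation counting.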

purified HLA DRB1*1101 = target: T2, purified HLA DRB1*1101 (Homo sapiens, UniProt P01903+P01911, A100R/A169T/A87E/I96F/K41T/L162R/M171V/P40S/Q125H/Q178H/Q39Y/Q99D/R42S/S66Y/T262R/V115G/W38E); assay: HLA-DR radioligand binding inhibition assay, DRB1*1101; conditions: IC50 nM purified HLA DRB1 *1101, purified HLA DRB1*1101
T2 construct: purified from EBV transformed homozygous cell lines or single MHC allele transfected 721.221, C1R, or fibroblast lines; made in house
Outline: as §1

purified HLA DRB1*0701 = target: T3, purified HLA DRB1*0701 (Homo sapiens, UniProt P01903+P01911, A100R/A102G/A103Q/D57E/D86V/E43K/F76Y/K127E/L162R/M171V/P40G/Q125H/Q99D/R33Q/R42Y/R54Q/S133A/S66F/T210M/V115G/Y107V/Y59L/Y89S); assay: HLA-DR radioligand binding inhibition assay, DRB1*0701; conditions: IC50 nM purified HLA DRB1 *0701, purified HLA DRB1*0701
T3 construct: purified from EBV transformed homozygous cell lines or single MHC allele transfected 721.221, C1R, or fibroblast lines; made in house
Outline: as §1

purified HLA DRB1*0901 = target: T4, purified HLA DRB1*0901 (Homo sapiens, UniProt P01903+P01911, A100R/A103E/D57H/D86V/F55Y/F60I/F76Y/I96F/K127E/L162R/M171V/P40D/Q125H/Q99R/R33Q/R42F/S133A/S66N/T210M/V115G/W38K/Y107V/Y59G/Y89S); assay: HLA-DR radioligand binding inhibition assay, DRB1*0901; conditions: IC50 nM purified HLA DRB1 *0901, purified HLA DRB1*0901
T4 construct: purified from EBV transformed homozygous cell lines or single MHC allele transfected 721.221, C1R, or fibroblast lines; made in house
Protocol: (§2) Instead, wells of an opaque white 96-well Optiplate (Packard) are coated with 3 μg (100 μl@ 30 μg/ml) of HLA-specific antibody (Ab) that “capture” complexes of radiolabeled MHC and unlabeled peptide transferred from the molecular binding assay plate in 100 μl of 0.05% NP40/PBS. After a 3-hour incubation period, the supernatant is decanted and scintillation fluid (Microscint 20) added. Captured complexes are then measured on a microplate scintillation and luminescence counter (TopCount NXTTM; Packard).
(§3) HLA-DR purification. Fifteen distinct HLA-DR molecules were used in quantitative assays to measure the binding of peptides to solubilized HLA-DR molecules. […] Briefly, columns of inactivated Sepharose CL4B and Protein A Sepharose were used as pre-columns. HLA-DR molecules were captured by passage of lysates over LB3.1 monoclonal antibody (anti-HLA-DRA) columns. Antibody columns were washed with 10 mM Tris-HCL, pH8.0 with 1% (v/v) NP-40, followed by PBS containing 0.4% (w/v) n-octylglucoside.
(§4) Briefly, 1-10 nM of radiolabeled peptide was co-incubated for 2 days at either room temperature or 37° C. with 1 μM to 1 nM purified HLA-DR molecules in the presence of a cocktail of protease inhibitors. Assays were performed at various pH conditions, ranging from pH 4 to pH 7. […] After incubation, the percentage of HLA-DR-bound radioactivity is determined by capturing HLA-DR/peptide complexes on Optiplates (Packard Instruments, Meriden, Conn.) coated with the LB3.1 antibody and determining bound counts per minute using the TopCount microscintillation counter (Packard Instruments).

purified HLA DRB1*1201 = target: T5, purified HLA DRB1*1201 (Homo sapiens, UniProt P01903+P01911, A100R/A169T/D57E/D86V/F55L/H45Y/K41T/L162R/M171V/P40S/Q125H/Q178H/Q39Y/Q99D/R42G/S66L/T262R/V114A/V67L/W38E/Y59H/Y61H/Y89S); assay: HLA-DR radioligand binding inhibition assay, DRB1*1201
T5 construct: purified from EBV transformed homozygous cell lines or single MHC allele transfected 721.221, C1R, or fibroblast lines; made in house
Protocol: as §2
as §3, with “n-octylglucoside. […] The pH was reduced to 8.0 and the eluates were concentrated by centrifugation in Centriprep 30 concentrators at 2000 rpm (Amicon, Beverly, Mass.).” for “n-octylglucoside.”
as §4, with “Instruments). […] Competitor peptides are tested in 2-4 complete, independent experiments, at concentrations ranging from […].” for “Instruments).”

purified HLA DRB1*0405 = target: T6, purified HLA DRB1*0405 (Homo sapiens, UniProt P01903+P01911, A100R/A169T/D86S/F76Y/I96L/K127E/L162R/M171V/N62H/P40V/Q125Y/R42H/S133A/S149N/S66Y/V115G/V209L/W38E); assay: HLA-DR radioligand binding inhibition assay, DRB1*0405; conditions: IC50 nM purified HLA DRB1 *0405, purified HLA DRB1*0405
T6 construct: purified from EBV transformed homozygous cell lines or single MHC allele transfected 721.221, C1R, or fibroblast lines; made in house
Outline: as §1

purified HLA DRB3*0101 = target: T7, purified HLA DRB3*0101 (Homo sapiens, UniProt P01903+P79483); assay: HLA-DR radioligand binding inhibition assay, DRB3*0101; conditions: IC50 nM purified HLA DRB3 *0101, purified HLA DRB3*0101
T7 construct: purified from EBV transformed homozygous cell lines or single MHC allele transfected 721.221, C1R, or fibroblast lines; made in house
Protocol: as §2
as §3, with “n-octylglucoside. […] The pH was reduced to 8.0 and the eluates were concentrated by centrifugation in Centriprep 30 concentrators at 2000 rpm (Amicon, Beverly, Mass.).” for “n-octylglucoside.”
as §4, with “Instruments). […] Competitor peptides are tested in 2-4 complete, independent experiments, at concentrations ranging from […].” for “Instruments).”

purified HLA DRB1*0802 = target: T8, purified HLA DRB1*0802 (Homo sapiens, UniProt P01903+P01911, A100R/A103L/A169T/F76Y/H45Y/I96F/K41T/L162R/M171V/P40S/Q125H/Q178H/Q39Y/Q99D/R218S/R42G/S66Y/V115G/W38E); assay: HLA-DR radioligand binding inhibition assay, DRB1*0802; conditions: IC50 nM purified HLA DRB1 *0802, purified HLA DRB1*0802
T8 construct: purified from EBV transformed homozygous cell lines or single MHC allele transfected 721.221, C1R, or fibroblast lines; made in house
Protocol: as §2
as §3, with “n-octylglucoside. […] The pH was reduced to 8.0 and the eluates were concentrated by centrifugation in Centriprep 30 concentrators at 2000 rpm (Amicon, Beverly, Mass.).” for “n-octylglucoside.”
as §4, with “Instruments). […] Competitor peptides are tested in 2-4 complete, independent experiments, at concentrations ranging from […].” for “Instruments).”

purified HLA DRB1*1302 = target: T9, purified HLA DRB1*1302 (Homo sapiens, UniProt P01903+P01911, A100E/A169T/K41T/L162R/M171V/P40S/Q125H/Q178H/Q39Y/Q99D/R42S/S66N/T262R/V115G/W38E/Y61H); assay: HLA-DR radioligand binding inhibition assay, DRB1*1302
T9 construct: purified from EBV transformed homozygous cell lines or single MHC allele transfected 721.221, C1R, or fibroblast lines; made in house
Outline: as §1

purified HLA DRB5*0101 = target: T10, purified HLA DRB5*0101 (Homo sapiens, UniProt P01903+Q30154); assay: HLA-DR radioligand binding inhibition assay, DRB5*0101; conditions: IC50 nM purified HLA DRB5 *0101, purified HLA DRB5*0101
T10 construct: purified from EBV transformed homozygous cell lines or single MHC allele transfected 721.221, C1R, or fibroblast lines; made in house
Outline: as §1

T2 sequence (P01903 26-254, other chains not shown): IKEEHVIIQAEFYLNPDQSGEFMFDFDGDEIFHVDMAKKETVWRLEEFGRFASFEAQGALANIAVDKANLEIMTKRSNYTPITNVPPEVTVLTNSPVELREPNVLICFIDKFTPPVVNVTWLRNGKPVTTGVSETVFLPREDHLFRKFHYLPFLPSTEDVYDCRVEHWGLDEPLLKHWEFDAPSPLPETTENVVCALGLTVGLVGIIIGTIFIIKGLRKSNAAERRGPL

| IC50 (purified HLA DRB1*0404) [nM] | IC50 (purified HLA DRB1*1101) [nM] | IC50 (purified HLA DRB1*0701) [nM] | IC50 (purified HLA DRB1*0901) [nM] | IC50 (purified HLA DRB1*1201) [nM] | IC50 (purified HLA DRB1*0405) [nM] | IC50 (purified HLA DRB3*0101) [nM] | IC50 (purified HLA DRB1*0802) [nM] | IC50 (purified HLA DRB1*1302) [nM] | IC50 (purified HLA DRB5*0101) [nM] | Compound |
| --- | --- | --- | --- | --- | --- | --- | --- | --- | --- | --- |
| > 20000 | > 20000 | > 20000 | > 20000 | > 20000 | > 20000 | > 20000 | > 20000 | > 20000 |  | CC[C@H](C)[C@H](NC(=O)[C@H](CS)NC(=O)[C@H](CC(C)C)NC(=O)[C@H](CCCCN)NC(=O)[C@H](CCC(=O)O)NC(=O)[C@H](C)NC(=O)[C@@H](NC(=O)[C@H](CC(C)C)NC(=O)[C@@H]1CCCN1C(=O)[C@@H](NC(=O)[C@@H](N)[C@@H](C)O)[C@@H](C)CC)[C@@H](C)O)C(=O)N[C@@H](Cc1ccc(O)cc1)C(=O)N[C@H](C(=O)N[C@@H](CC(=O)O)C(=O)N[C@@H](CC(N)=O)C(=O)O)[C@@H](C)O [Peptide 1622.01] |
|  |  | 3890 | > 20000 | > 20000 | 37 | > 20000 | > 20000 |  | > 20000 | CC[C@H](C)[C@H](NC(=O)[C@@H](NC(=O)[C@H](Cc1c[nH]cn1)NC(=O)[C@@H](N)CC(C)C)C(C)C)C(=O)N[C@@H](CCCCN)C(=O)N[C@@H](CO)C(=O)N[C@@H](CC(=O)O)C(=O)N[C@@H](CC(C)C)C(=O)N[C@H](C(=O)N[C@@H](CC(N)=O)C(=O)N[C@@H](CCC(=O)O)C(=O)N[C@@H](CCC(=O)O)C(=O)N[C@@H](C)C(=O)N[C@H](C(=O)NCC(=O)O)[C@@H](C)O)C(C)C [Peptide 9019.0005] |

From patent US20140377340A1, “HLA-DR BINDING PEPTIDES AND THEIR USES” (priority 2007, published 2014)
